According to US20190358247A1 (The Medical College of Wisconsin, Inc., priority 2016, published 2019):
Where “and” joins values, the source holds several entries; their conditions need not be identical. Equal values may be shown once. Read-outs that look alike come from different tables or passages of the source.

Key:
mitochondrial complex I [1] = biological target: T1, mitochondrial complex I (Homo sapiens, UniProt O75251+O75306+P03886); assay: Complex I oxygen consumption (pyruvate/malate) in permeabilized cells, Seahorse XF96; format: cell-based
Procedure: (§1) Respiratory enzyme activity in intact and permeabilized cells. The mitochondrial function in intact and permeabilized pancreatic cancer cells was measured using a Seahorse XF96 Extracellular Flux Analyzer (Seahorse Bioscience, North Billerica, Mass., USA). Unless specified otherwise, assays in intact cells were performed as previously described. Measurement of mitochondrial respiratory complexes in permeabilized cells was performed according to the manufacturer's instructions (Seahorse Bioscience). Briefly, intact cells were permeabilized using 1 nM Plasma Membrane Permeabilizer (PMP, Seahorse Bioscience) immediately before oxygen consumption rate (OCR) measurement by XF96. The oxygen consumption derived from mitochondrial complex I or complex II activity was measured by providing different substrates to mitochondria, e.g., pyruvate/malate for complex I and succinate for complex II activity. Rotenone, malonate and antimycin A were used as specific inhibitors of mitochondrial complex I, II and III activities, respectively.
(§2) The oxygen consumption rate was measured using the permeabilized MiaPaCa-2 cells in MAS buffer supplemented with pyruvate. The use of permeabilized cells avoids differences in cellular uptake of compounds. […] We tested the effect of pretreating cells with Mito-Met10 or Met using the permeabilized model. MiaPaCa-2 cells were treated with Met and Mito-Met10 for 24 h and the oxygen consumption studies were performed in these cells after permeabilization.
Target sequence in this assay (O75306 34-463): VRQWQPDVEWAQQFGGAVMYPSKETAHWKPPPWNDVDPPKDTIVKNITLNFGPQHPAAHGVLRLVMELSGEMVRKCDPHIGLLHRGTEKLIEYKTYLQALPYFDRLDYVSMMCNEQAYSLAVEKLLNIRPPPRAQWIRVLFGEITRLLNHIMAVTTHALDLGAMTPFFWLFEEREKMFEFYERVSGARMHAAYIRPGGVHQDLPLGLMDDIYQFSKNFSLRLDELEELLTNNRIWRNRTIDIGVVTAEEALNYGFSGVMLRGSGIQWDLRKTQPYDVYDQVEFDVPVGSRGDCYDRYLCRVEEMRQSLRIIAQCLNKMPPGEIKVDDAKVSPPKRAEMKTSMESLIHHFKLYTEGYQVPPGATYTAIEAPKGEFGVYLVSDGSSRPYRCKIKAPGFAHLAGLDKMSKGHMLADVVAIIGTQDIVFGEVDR
Target sequence in this assay (O75251 39-213): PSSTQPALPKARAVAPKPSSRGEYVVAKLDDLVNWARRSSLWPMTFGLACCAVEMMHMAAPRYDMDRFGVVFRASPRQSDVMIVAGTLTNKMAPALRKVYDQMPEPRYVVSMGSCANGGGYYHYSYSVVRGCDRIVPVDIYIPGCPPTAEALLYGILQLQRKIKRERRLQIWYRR
Target sequence in this assay (P03886 whole entry): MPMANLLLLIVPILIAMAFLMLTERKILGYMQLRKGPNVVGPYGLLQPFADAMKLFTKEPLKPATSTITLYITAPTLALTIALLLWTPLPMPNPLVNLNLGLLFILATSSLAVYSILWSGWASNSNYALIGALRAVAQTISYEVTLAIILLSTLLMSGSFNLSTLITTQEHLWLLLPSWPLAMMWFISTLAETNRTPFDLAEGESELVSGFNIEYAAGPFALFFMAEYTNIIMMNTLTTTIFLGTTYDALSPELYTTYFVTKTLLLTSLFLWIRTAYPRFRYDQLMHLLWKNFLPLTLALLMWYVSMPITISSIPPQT
Target sequence in this assay (O75489 37-264, further chain): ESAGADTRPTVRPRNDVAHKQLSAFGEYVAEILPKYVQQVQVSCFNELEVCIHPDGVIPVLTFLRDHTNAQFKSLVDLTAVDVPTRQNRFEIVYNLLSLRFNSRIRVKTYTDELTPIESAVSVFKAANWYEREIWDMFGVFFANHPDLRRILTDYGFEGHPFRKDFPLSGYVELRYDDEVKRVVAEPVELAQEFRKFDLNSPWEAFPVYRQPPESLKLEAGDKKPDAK
Target sequence in this assay (P03897 whole entry, further chain): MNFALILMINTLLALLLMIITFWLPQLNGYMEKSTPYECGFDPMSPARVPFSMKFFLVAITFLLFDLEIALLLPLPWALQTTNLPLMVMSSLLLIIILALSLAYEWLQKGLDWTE

MiaPaCa-2 cells [2] = assay: Sytox Green cytotoxicity assay; format: cell-based; details: 100 μM, 24 h
Procedure: Cytotoxicity assay. To determine the cytotoxicity of Mito-Met analogs and other TPP^+-conjugated to a long chain aliphatic hydrocarbon, we used the Sytox assay as described previously. MiaPaCa-2 cells were treated for 24 h, and dead cells were monitored in the presence of 200 nM Sytox Green (Invitrogen). The Sytox method labels the nuclei of dead cells yielding green fluorescence. Fluorescence intensities from the dead cells in 96-well plate were acquired in real time every 15 min after 4 h using a plate reader (BMG Labtech, Inc.) equipped with an atmosphere controller set at 37° C. and 5% CO2:95% air, using a fluorescence detection with 485 nm (excitation) and 535 nm (emission). To measure the total cell number, all of the samples in each treatment group were permeabilized by adding Triton X 100 (0.065%) in the presence of Sytox Green for 3 h, and maximal fluorescence intensities were taken as 100%. Data are represented as a percentage of dead cells after normalization to total cell number for each group.
Induction of cell death was monitored by Sytox Green staining, as shown previously. MiaPaCa-2 cells were treated with Mito-Met10 (100 μM), Mito-CP (100 μM), or Met (30 mM) and other controls for 24 h and cell death was measured in real time.

AMPK = assay: Immunoblot of phosphorylated AMPK Thr-172 relative to total AMPK, MiaPaCa-2 cells; format: cell-based, human
Procedure: In this example, the inventors have shown that the mito-met compounds of the present invention cause an increased AMPK activation in cancer cells. In preliminary experiments (FIG. 4), human MiaPaCa2 and murine FC1199 PDAC cells treated 30 min with 1 μM mito-met (MM), 1 mM Met, or the oligomycin positive control were lysed, and proteins size-separated on SDS-PAGE, transferred to PVDF, and probed with an antibody to phosphorylated AMPK Thr-172.
Immunoblotting. MiaPaCa-2 PDAC cells (1×10^6) were plated to 80% confluency in 60 mm dishes and then serum-starved for 5 hours. […] Cells were stimulated with oligomycin as a positive control. After stimulation, cells were washed twice in cold PBS and lysed using a modified RIPA buffer. Lysates were normalized for protein concentration, size separated using reducing SDS-PAGE, electro-transferred to PVDF membranes (Millipore) and then probed using primary and horseradish peroxidase-conjugated secondary antibodies. Antibodies against total or phosphorylated 5′ AMP-activated protein kinase (AMPK) were purchased from Cell Signaling Technology (Danvers, Mass.) and used at the manufacturer's recommended dilutions. Proteins were visualized by chemiluminescence with auto-exposure and quantified by densitometric analysis using the FluorChem HD2 from Cell Biosciences (Santa Clara, Calif.).
AMPK activation in Mito-Met and Met-treated PDAC cells. […]

[3] = mouse
Procedure: In an initial proof-of-concept experiment, syngeneic KPC cells expressing Firefly luciferase (FC1242-luc) were orthotopically implanted to the pancreas of C57BL/6 mice and tumor growth monitored using bioluminescence imaging (FIG. 15F). Mice orthotopically autografted with FC1242-luc cells were treated daily with 1 mg/kg or 150 mg/kg Met, or 1 mg/kg Mito-Met. […] Serum from these animals was collected, and hepatic and kidney toxicity tested using standard AST, ALT, AP, and BUN assays, respectively.

[4] = Tissue accumulation in FC1242-luc orthotopic mice; format: in vivo; details: 1 mg/kg daily for two weeks; liver, kidney, spleen, tumor
Procedure: FIG. 19. Tissue accumulation of Mito-Met in in vivo FC1242-luc orthotopic mouse model. FC1242-luc orthotopic mice treated with Mito-Met10 (1 mg/kg) daily for 2 weeks. Tissue harvesting and extractions were performed 3 days after the last treatment. Quantitative data on concentrations of Mito-Met after normalization to tissue wet weight are represented as mean±SD, n=5.

HaCaT = assay: IncuCyte cell confluence assay, keratinocytes; format: cell-based
Procedure: IncuCyte Analyzer-real time measurement of cell proliferation. The cell proliferation was measured using a label-free, noninvasive cellular confluence assay by IncuCyte Live-Cell Imaging Systems (Essen Bioscience, Ann Arbor, Mich., USA; IncuCyte FLR). This system enables collection of live cell images at 2 h intervals over several days. The IncuCyte Analyzer provides real-time cellular confluence data based on segmentation of high-definition phase-contrast images. The cell proliferation is expressed as an increase in percentage of cell confluence.

MiaPaCa-2 cells [5] = assay: Intracellular uptake by LC-MS/MS
Procedure: Cells were grown on 10 cm dishes and treated with the compounds for 24 h in full media.
Next we investigated the relative uptake of different Mito-Met analogs (Mito-Met2, Mito-Met6, and Mito-Met10) and phenformin in MiaPaCa-2 cells (FIG. 12D). Cells were treated with respective Mito-Met analog (1 μM) for 1 h. Cells were lysed after washing and analyzed for Mito-Met analog by LC-MS.

mitochondrial complex I [6] = biological target: T1, mitochondrial complex I; assay: Complex I oxygen consumption (pyruvate/malate) in permeabilized cells, Seahorse XF96; format: cell-based; parameters: IC50, complex I oxygen consumption; other: permeabilized MiaPaCa-2, added acutely
Procedure: as §1, §2
Target sequence in this assay (P03886 whole entry): as the sequence (P03886 whole entry) above
Target sequence in this assay (O75251 39-213): as the sequence (O75251 39-213) above
Target sequence in this assay (P03897 whole entry, further chain): as the sequence (P03897 whole entry, further chain) above
Target sequence in this assay (O75306 34-463): as the sequence (O75306 34-463) above
Target sequence in this assay (O75489 37-264, further chain): as the sequence (O75489 37-264, further chain) above

Which “concentration giving significant decrease in OCR (complex I inhibition)” value (mitochondrial complex I [1]; 24 h treatment, then permeabilized) does the source give for `Br.N=C(N)NC(=N)NCCCCCCCCCC[P+](c1ccccc1)(c1ccccc1)c1ccccc1` [Mito-Met10] here?
Its value is 0.75 µM.

And the “fold more effective than Met in inhibiting complex I-mediated oxygen consumption” value (mitochondrial complex I [1]; MiaPaCa-2)?
The value was 2,000 fold.

What about the IC50 (mitochondrial complex I [1]; read-out: IC50, mitochondrial complex I-mediated oxygen consumption, MiaPaCa-2, 24 h pretreatment, then permeabilized) of the same compound?
Its IC50 is 400 nM and ~430 nM.

What about the “cell death, Sytox Green staining” value (MiaPaCa-2 cells [2]) of the same compound?
Its value is “no detectable cell death”.

What about the “potency of AMPK activation relative to metformin” value (AMPK; MiaPaCa-2) of the same compound?
Its value is ~1,000 fold.

What about the “increase in active AMPK (phosphorylated relative to total protein)” value (AMPK; human MiaPaCa-2, 1 μM, 30 min) of the same compound?
Its value is 1.5-2.5 fold.

And the “toxicity in vivo (hepatic and kidney)” value [3]?
Its value is “neither Met nor the mitochondria-targeted analog Mito-Met elicited toxicity”.

And the Kidney BUN ([3]; in vivo, 1 mg/kg)?
The Kidney BUN was 27 ± 4 mg/dL.

What about the “Liver ALT” value ([3]; in vivo, 1 mg/kg) of the same compound?
Its value is 26 ± 10 IU/L.

What about the “Liver AST” value ([3]; in vivo, 1 mg/kg) of the same compound?
Its value is 89 ± 16 IU/L.

And the tissue accumulation [4]?
Its tissue accumulation is “increased accumulation”.

And the “effect on cell confluence” value (HaCaT)?
The value was “not significantly affected”.

What about the “difference in intracellular uptake and retention, MiaPaCa-2 and MCF-10A cells” value (MiaPaCa-2 cells [5]; LC-MS) of the same compound?
The value was “four-fold”.

What about the “cellular uptake relative to phenformin” value (MiaPaCa-2 cells [5]; MiaPaCa-2, LC-MS) of the same compound?
Its value is roughly 100 fold.

And the “concentration at which OCR was inhibited” value (mitochondrial complex I [6]; permeabilized MiaPaCa-2, added acutely)?
The value was 10 µM.

What about the IC50 (mitochondrial complex I [6]; read-out: IC50, complex I oxygen consumption, permeabilized MiaPaCa-2, compound added acutely (FIG. 20C)) of the same compound?
The IC50 was 2000 nM.
